{"source": "paper PMC5712521", "about": "“Dendrogenin A drives LXR to trigger lethal autophagy in cancers” (Nature Communications, 2017)", "key": {"B16F10 cells": {"system": "B16F10 cells", "experiment": "Clonogenicity (colony formation) inhibition", "format": "cell-based", "details": "Mus musculus, B16-F10; B16F10 (M); 72 h; read-out: Clono IC50", "description": "(§1) Supplementary Fig. 1. a DDA inhibited m elanom a colony form ation. Melanom a cells were […]\n(§2) a 0.5% solution of crystal violet in water and analyzed by microscopy. Images are representative of 5 independent experiments. b Evaluation of DDA-induced cytotoxicity (cytotox) and clonogenicity (clono) inhibition in a subset of human (H) and mouse (M) m elanom a cell lines. T he BRaf status in m elanom a cells lines is shown. […]"}, "SKMEL-28 cells": {"system": "SKMEL-28 cells", "experiment": "Clonogenicity (colony formation) inhibition", "format": "cell-based", "details": "Homo sapiens, SK-MEL-28; SKMEL-28 (H); 72 h; read-out: Clono IC50", "description": "as §1, §2"}, "primary AML cells": {"system": "primary AML cells", "experiment": "Patient-derived primary AML cells engrafted into NSG mice", "format": "in vivo", "details": "three patients; 20 mg/kg/d i.p., 19 days", "method": "The engraftment of human primary AML cells was performed on NSG mice. Briefly, human primary AML cells, HL60 cells or normal CD34+ cells were resuspended in PBS, and 0.8 × 10^6 to 2 × 10^6 viable trypan blue-negative cells were injected intravenously into NSG mice that had been previously irradiated for 24 h with 2.25 Gy. Two and a half weeks after the injection of human cells, mice were treated with DDA (20 mg/kg/day by IP injection) or vehicle as control for 2, 3 weeks, after which the engraftment of human AML and normal hematopoietic cells was measured in the bone marrow, spleen and brain by quantifying the percentage of hCD45+CD33+ cells by flow cytometry. The viability of AML cells was established by quantifying the percentage of hCD45+CD33+Annexin-V- cells."}, "KG1 tumors": {"system": "KG1 tumors", "experiment": "Subcutaneous KG1 tumor xenograft", "format": "in vivo, mice", "method": "(§3) Exponentially growing cells were harvested, washed twice in PBS then resuspended in PBS. SKMEL-28, shSKMEL-28 clones (5 × 10^6 cells) and B16F10 (3 × 10^5) cells were injected subcutaneously (s.c.) into the flank of nude mice. HL60, KG1 and shKG1-clones (5 × 10^6) were inoculated s.c. into the flanks of NOD/SCID mice. When tumors were palpable, animals (n = 10–20 mice per group, as indicated) were randomized to receive either DDA (20 mg/kg) intraperitoneally (i.p.) or 40 mg/kg by oral gavage (p.o), once a day, or vehicle solvent for the indicated time. Animals were examined daily and body weights were measured twice a week. In all experiments, tumor volume was determined by direct measurement with a caliper and was calculated using the formula (width^2 × length)/2. At the end of experiments, mice were sacrificed and tumors were excised and divided for intra-tumoral DDA quantification, immunoblotting, or immunohistochemistry analyses. […]\n(§4) (n=16- 20 mice/group) engrafted with KG1 cells or HL60 cells were treated with DDA (20 mg/kg/day, i.p.) or solvent vehicle (control). Tumor growth was monitored over time and was analyzed for significance using repeated measures ANOVA (***P<0.001). The mean tumor volumes ± SEM are shown. e Average tumor weight at the end of the experiments in d. *P<0.5, **P<0.01, ANOVA. f Mean tumor volumes measured at the end of the experiments for HL60 and KG1 graf ted into NOD/SCID or NMRI-Fo x1 -nude mice treated with DDA (40 mg/kg/day, p.o. or 20 mg/kg/day, i.p.) or solvent vehicle (control) (n=10- 20 mice per group). Values represent the means ± S.E.M. (**P<0.01, ***P<0.001, ANOVA). g Histochemical analysis of the expression of LC3 and P62 in HL60 tumor sections isolated from NOD/SCID mice treated or not with DDA (20 mg/kg/day, i.p.). h Quantification of LC3 punctate cells in shCTRL and shLXRβ KG1 tumors. i Quantification of DDA levels in tumors 4 h after the final administration of DDA. j Box plot of TCGA RNA-seq data from patients with melanoma showing that LXRβ is the predominant LXR isoform expressed. […]"}, "WM35 cells": {"system": "WM35 cells", "experiment": "Clonogenicity inhibition", "format": "cell-based", "details": "Homo sapiens; WM35 (H); 72 h; read-out: Clono IC50", "description": "as §1, §2"}, "A375 cells": {"system": "A375 cells", "experiment": "Clonogenicity inhibition", "format": "cell-based", "details": "Homo sapiens, A-375; A375 (H); 72 h; read-out: Clono IC50", "description": "as §1, §2"}, "WM-266-4 cells": {"system": "WM-266-4 cells", "experiment": "Clonogenicity inhibition", "format": "cell-based", "details": "Homo sapiens; WM-266-4 (H); 72 h; read-out: Clono IC50", "description": "as §1, §2"}, "SKMEL-2 cells": {"system": "SKMEL-2 cells", "experiment": "Clonogenicity inhibition", "format": "cell-based", "details": "Homo sapiens, SK-MEL-2; SKMEL-2 (H); 72 h; read-out: Clono IC50", "description": "as §1, §2"}, "WM115 cells": {"system": "WM115 cells", "experiment": "Clonogenicity inhibition", "format": "cell-based", "details": "Homo sapiens, WM-115; WM115 (H); 72 h; read-out: Clono IC50", "description": "as §1, §2"}, "HL60 tumors": {"system": "HL60 tumors", "experiment": "Subcutaneous HL60 tumor xenograft", "format": "in vivo, mice", "method": "as §3, §4"}}}
{"smiles": "CC(C)CCC[C@@H](C)[C@H]1CC[C@H]2[C@@H]3C[C@@H](NCCc4cnc[nH]4)[C@@]4(O)C[C@@H](O)CC[C@]4(C)[C@H]3CC[C@]12C", "note": "[DDA, Dendrogenin A]", "values": [{"measurement": "IC50", "setting": "B16F10 cells", "result": "1.2e-06 ± 3e-07", "unit": "M"}, {"measurement": "IC50", "setting": "SKMEL-28 cells", "result": "1400 ± 600", "unit": "nM"}, {"measurement": "change in AML cell viability in bone marrow and spleen compared to controls", "setting": "primary AML cells", "result": "−19.6 ± 7.6", "unit": "%"}, {"measurement": "change in number of AML cells in bone marrow and spleen compared to controls", "setting": "primary AML cells", "result": "−57 ± 15", "unit": "%"}, {"measurement": "Tumor volume at the end of the experiment", "setting": "KG1 tumors; NOD/SCID mice, DDA i.p. 20mg/kg/d (control 1249±137)", "result": "618±55", "unit": "mm3"}, {"measurement": "Tumor volume at the end of the experiment", "setting": "KG1 tumors; NOD/SCID mice, DDA p.o. 40mg/kg/d (control 1249±137)", "result": "400±68", "unit": "mm3"}, {"measurement": "Tumor volume at the end of the experiment", "setting": "KG1 tumors; mice, DDA i.p. 20mg/kg/d (control 1134±389)", "result": "443±62", "unit": "mm3"}, {"measurement": "IC50", "setting": "WM35 cells", "result": "1400 ± 200", "unit": "nM"}, {"measurement": "IC50", "setting": "A375 cells", "result": "1500 ± 300", "unit": "nM"}, {"measurement": "IC50", "setting": "WM-266-4 cells", "result": "1200 ± 400", "unit": "nM"}, {"measurement": "IC50", "setting": "SKMEL-2 cells", "result": "1400 ± 400", "unit": "nM"}, {"measurement": "IC50", "setting": "WM115 cells", "result": "1500 ± 300", "unit": "nM"}, {"measurement": "Tumor volume at the end of the experiment", "setting": "HL60 tumors; NMRI-Fox1-nude mice, DDA i.p. 20mg/kg/d (control 726±81)", "result": "203±72", "unit": "mm3"}, {"measurement": "Tumor volume at the end of the experiment", "setting": "HL60 tumors; NOD/SCID mice, DDA i.p. 20mg/kg/d (control 2348±204)", "result": "880±101", "unit": "mm3"}, {"measurement": "Tumor volume at the end of the experiment", "setting": "HL60 tumors; NOD/SCID mice, DDA p.o. 40mg/kg/d (control 2348±204)", "result": "812±66", "unit": "mm3"}]}
